Columns and labels:
[1] = system: collagen I and III synthesis; assay: [3H]-Proline incorporation as measure of collagen deposition; type: cell-based, human; conditions: in vitro
Source text: This human skin substrate consists of neonatal foreskin fibroblasts that secrete a functionally active extracellular matrix grown on a medical-grade nylon mesh cocultured with human neonatal foreskin keratinocytes that differentiate into a multilayered epidermis.
Quantifying proline incorporation can be used to measure potential collagen deposition stimulated by a test substance. This concept is the foundation for the following experiments.

[2] = system: PGE2 synthesis by 3T3 fibroblasts; assay: Inhibition of PGE2 synthesis by 3T3 fibroblasts (ELISA); type: cell-based; conditions: for [PGE2]: 24 h
Source text: This Example establishes the anti-inflammatory potential of GC-100 by measuring the inhibition of PGE2 synthesis by 3T3 fibroblasts in cell culture.
The cells are nourished in a medium enriched with arachidonic acid which leads to increased secretion of eicosanoids into the medium.
The formation of prostaglandin PGE2 will be followed as a marker of eicosanoid synthesis, because it is a stable molecule secreted preferentially by 3T3 fibroblasts. The anti-inflammatory potential of an active ingredient may then be investigated by following the decrease in secretion of PGE2 in the culture medium.
Quantification of PGE2 will be achieved using an enzyme-linked immunosorbant assay (ELISA). In principle, the PGE2 expressed by the cells in culture medium will compete with enzyme-linked PGE2 for available antibody, which is a constant. The concentration of enzyme-linked PGE2 is also constant and quantified prior to testing. The enzyme linked to PGE2 prior to testing is acetylcholinesterase. Since the quantity of PGE2 expressed by 3T3 cells in culture will vary based on the concentration of GC-100 present, the amount of antibody available to bind to the enzyme-linked PGE2 versus that produced by the 3T3 cells assumes an inverse relationship that is dependent on Brownian motion. After eliminating unreacted PGE2 through washing, substrate is added that binds to the enzyme-PGE2-antibody complex to generate a yellow color that is strongly evident using spectrophotometer set at 412 nm. The amount of light transmitted through the test sample is directly proportional to the intensity of the color change and, consequently, to the concentration of PGE2-enzyme-antibody complex.
Create a mother solution (solution #1) containing complete DMEM, alcohol, and 2×10^5 3T3 fibroblasts for plating onto 25 cm^2 culture dishes. Using a compounding dilution technique, prepare the following solutions, using 5 mL of media per plate: • Solution #2: Solution #1 plus arachidonic acid (10^−3% P/V) • Solution #3: Solution #2 plus indomethacin (0,1,10^−3% P/V) • Solution #4: Solution #2 plus GC-100 0.5% • Solution #5: Solution #2 plus GC-100 1.0%
Incubate all preparations for 24 hours at 37° C. Recover the supernatant media, and if needed deep freeze it at −20° C. before quantification. Count the number of surviving cells using a coulter counter. Establish a calibration curve of the quantity of PGE2. Quantify the supernatant media using an enzyme-linked immunosorbant assay kit specific for PGE2 (Cayman), using a Dynotech microplate reader (MR500) with a filter set at 412 nm. Calculate the % inhibition of PGE2 synthesis. The results are shown in Table 4 and FIG. 10, which is a graph showing mean suppression of PGE2 concentration in test media comprising indomethacin or GC-100.

[3] = system: photodamaged human skin; assay: Pilot open label study on photoaged skin: panelist questionnaire and side effects; type: in vivo
Method: A pilot open label study was conducted to establish the efficacy of GC-100 on photoaged skin in a clinical setting.
Primary endpoints for this study were as follows: • 1. Epidermal skin thickness was measured using high frequency ultrasound. • 2. Panelists regard for their overall appearance and any changes noted in the appearance of their wrinkles, lentigines, facial acne and pore size were used in qualitative analysis. In addition, panelists were asked to comment on irritation, novel rashes, and other side effects during the study period.
An open label, six week pilot study to examiner the regenerative effect of GC-100 was performed on 15 women with mild to moderate dermatoheliosis as defined by clinical examination. Exclusion criteria selected against patients with a history of retinoic acid use, dermabrasion, or chemical peel application within 6 months prior to study onset. However, all patients had used one or more of these products previously. After appropriate informed consent was obtained, baseline measurements of epidermal thickness using high frequency untrasonography (20 MHz and above) were collected using skin at the infraorbital prominence. Three measurements were taken at each site and averaged to yield a result. GC-100 was applied to the face and neck according to the following schedule: • Weekly: GC-100 applied in mask vehicle • Twice daily: GC-100 applied through lotion vehicle
The patient population was divided into two groups, where Group I was evaluated after 24 hours of product application, and Group II was evaluated at the conclusion of weeks 2, 4 and 6. A panelist questionnaire was completed during each evaluation session.

[4] = system: collagen I and collagen III; assay: Collagen deposition by light and electron microscopy; conditions: 20,000×; vs untreated control
Method: Skin tissue treated with GC-100 in the absence of ascorbic acid was prepared to illustrate collagen deposition. Tissue samples were first pretreated with Bouin's solution to intensify subsequent staining results. Samples were then treated with Mason's trichrome stain, which combines the plasma stain (chromotrope 2R) and connective tissue fiber stain)aniline blue) in a phosphotungstic acid solution to which glacial acetic acid was added. The collagen absorbs the tungsten ion, which may be visualized due to the complexed aniline blue.
Staining for specific collagen types was achieved using specific standardized indirect immunoperoxidase attains for collagen I and III, respectively.
Collagen deposition assessments are based on the visual interpretation of two endpoints: Collagen I and Collagen III. An untreated control and a tissue sample treated with GC-100 were stained to reveal collagen I. A similar method of comparison was used to illustrate collagen III deposition in control and treated tissue.
Tissues used for light microscopy were place in Karnovsky's fixative for additional evaluation using electron microscopy standard technique. Magnification power of 20,000× was used for visualization of the lower dermis.

[5] = DMEM + AA + 0.5% GC-100, column A
[6] = DMEM + AA + 0.5% GC-100, column B
[7] = DMEM + AA + 0.5% GC-100, column C
[8] = DMEM + AA + 1% GC-100, column A
[9] = DMEM + AA + 1% GC-100, column B
[10] = DMEM + AA + 1% GC-100, column C

Substance: H-Lys-Pro-NH2 [GC-100]
- proline incorporation relative to Retin-A (retinoic acid) 0.025% [1]: more than twice
- % change of PGE2 vs DMEM + AA, MEAN ([2]; DMEM + AA + 0.5% GC-100): −13%
- % change of PGE2 vs DMEM + AA [2, 5]: −10.5%
- [PGE2] [2, 5]: 2.81 pg/mL
- % change of PGE2 vs DMEM + AA [2, 6]: −19.7%
- [PGE2] [2, 6]: 2.41 pg/mL
- % change of PGE2 vs DMEM + AA [2, 7]: −8.7%
- [PGE2] [2, 7]: 2.62 pg/mL
- % change of PGE2 vs DMEM + AA, MEAN ([2]; DMEM + AA + 1% GC-100): −23.9%
- % change of PGE2 vs DMEM + AA [2, 8]: −23.9%
- [PGE2] [2, 8]: 2.39 pg/mL
- % change of PGE2 vs DMEM + AA [2, 9]: −27.7%
- [PGE2] [2, 9]: 2.17 pg/mL
- % change of PGE2 vs DMEM + AA [2, 10]: −20.2%
- [PGE2] [2, 10]: 2.29 pg/mL
- mean decrease of PGE2 expression below untreated control ([2]; GC-100 1%): 24%
- Incidence of side effects ([3]; panelist questionnaire): 0%
- Positive response: Decreased appearance of lentigines ([3]; panelist questionnaire): 54%
- Positive response: Decreased appearance of pores ([3]; panelist questionnaire): 92%
- Positive response: Decreased appearance of wrinkles ([3]; panelist questionnaire): 62%
- Positive response: Decreased incidence of blemishes ([3]; panelist questionnaire): 92%
- Positive response: Improved overall cosmetic appearance ([3]; panelist questionnaire): 92%
- clinical irritation during the study ([3]; six week study, face and neck): No clinically detectable irritation
- collagen fibers in lower dermis, electron microscopy [4]: collagen fiber density is increased

Source: patent publication US11793746B2, “Intense skin hydration systems and methods” (priority 2020, dated 2023)
